Experimental data taken from patent US20250092065A1, “2-(INDAZOL-5-YL)-6-(PIPERIDIN-4-YL)-1,7-NAPHTHYRIDINE DERIVATIVES AND RELATED COMPOUNDS AS MODULATORS FOR SPLICING NUCLEIC ACIDS AND FOR THE TREATMENT OF PROLIFERATIVE DISEASES” (REMIX THERAPEUTICS INC., priority 2022, published 2025).
Where two headings read alike, the source gives them in different places.

What was measured:
Format in all cases: cell-based, human
[1] = tested on: MYB mRNA; experiment: RT-qPCR splicing assay, MYB mRNA canonical (CJ) and alternative (AJ) junction; settings: Homo sapiens; for AC50: MYB alternative junction mRNA, read-out: MYB AJ (increase in AJ mRNA, AC50)
How it was run: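 Canonical and alternative-exon junction isoforms were quantified by RT-qPCR in cell lysates, with ΔCt against a housekeeper (GAPDH/GUSB/PPIA), then ΔΔCt vs DMSO, converted to 2^(−ΔΔCt) and percent response. K562 or A673 cells were exposed for 24 h to 11 concentrations (3-fold, top final 10 uM).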

[2] = tested on: HTT; experiment: HiBiT protein abundance assay, HTT (K562 HiBiT knock-in); settings: HiBiT knock-in K562 cells, 24 hours, top dose 10 μM
How it was run: (§1)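 K562 HiBiT knock-in, 24 h, 37 °C, top 10 μM final, 3-fold ×10, DMSO ≤0.25%. Lytic HiBiT luminescence; PC = parental K562, NC = DMSO; 4PL IC50.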

[3] = tested on: MYB; experiment: HiBiT protein abundance assay, MYB (K562 HiBiT knock-in); settings: HiBiT knock-in K562 cells, 24 hours, top dose 10 μM
How it was run: as §1

[4] = tested on: Target C; experiment: HiBiT protein abundance assay, Target C (K562 HiBiT knock-in); settings: HiBiT knock-in K562 cells, 24 hours, top dose 10 μM
How it was run: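 K562 HiBiT knock-in cells (10000/well) were treated 24 h at 37° C with a 10-point 3-fold dilution series (top 10 μM final, ≤0.25% DMSO). HiBiT luminescence was read after lytic LgBiT detection. Percent response used unmodified K562 and DMSO-treated knock-in controls, and IC50 came from a four-parameter fit at 50% of untreated.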

[5] = MYB canonical junction mRNA, RT-qPCR, read-out: MYB CJ (decrease in CJ mRNA levels, IC50)
[6] = canonical junction qPCR panel, Table 4, read-out: MYB IC50 (decrease in CJ mRNA levels)

Compound | AC50 ([1]; RT-qPCR) [nM] | IC50 [1, 5] [nM] | IC50 [1, 6] [nM] | IC50 [2] [nM] | IC50 [3] [nM] | IC50 [4] [nM]
Cn1cc2cc(-c3ccc4nc([C@@H]5CCNC6(CC6)C5)ccc4n3)c(O)cc2n1 (single isomer, unassigned) [Compound 495] | < 100 | < 100 | < 100 | < 100 | < 100 | < 100
Cn1cc2cc(-c3ccc4nc([C@H]5CCNC6(CC6)C5)ccc4n3)c(O)cc2n1 (single isomer, unassigned) [Compound 496] | < 100 | 100 to 1000 | 100 to 1000 | < 100 | < 100 | < 100
Cc1nc2cc(O)c(-c3ccc4nc([C@H]5CCNC6(CC6)C5)ccc4n3)cc2o1 (single isomer, unassigned) [Compound 497] | < 100 | < 100 | < 100 | < 100 | < 100 | < 100
Cc1nc2cc(O)c(-c3ccc4nc([C@@H]5CCNC6(CC6)C5)ccc4n3)cc2o1 (single isomer, unassigned) [Compound 498] | < 100 | 100 to 1000 | 100 to 1000 | < 100 | < 100 | < 100
CN[C@@H]1CCN(c2ccc3nc(-c4cn5cc(C)nc5c(C)c4O)ncc3n2)C1 (single isomer, unassigned) [Compound 504] | 100 to 1000 | 100 to 1000 | 100 to 1000 | 100 to 1000 | 100 to 1000 | 100 to 1000
CNC(=O)c1nc(-c2cc3cn(C)nc3c(C)c2O)nc2ccc(N3CCN[C@@H](C)C3)cc12 (single isomer, unassigned) [Compound 512] | < 100 | < 100 | < 100 | 100 to 1000 | < 100 | 100 to 1000
CN[C@@H]1CCN(c2ccc3nc(-c4cc5cn(C)nc5c(C)c4O)ncc3c2)C1 (single isomer, unassigned) [Compound 521] | < 100 | < 100 | < 100 | < 100 | < 100 | 100 to 1000
CNC(=O)c1nc(-c2cc3cn(C)nc3c(C)c2O)nc2ccc(N3C[C@@H](C)N[C@H](C)C3)cc12 (single isomer, unassigned) [Compound 653] | < 100 | < 100 | < 100 | < 100 | < 100 | 100 to 1000
Cc1c(O)c(-c2ncc3cc(N4C[C@@H](C)N[C@H](C)C4)ccc3n2)cc2cn(C)nc12 (single isomer, unassigned) [Compound 661] | 100 to 1000 | 100 to 1000 | 100 to 1000 | 100 to 1000 | < 100 | 100 to 1000
CNC(=O)c1nc(-c2cc3cn(C)nc3c(F)c2O)nc2ccc(N3C[C@@H](C)N[C@H](C)C3)cc12 (single isomer, unassigned) [Compound 668] | < 100 | < 100 | < 100 | 100 to 1000 | < 100 | 100 to 1000
CNC(=O)c1nc(-c2cc3cn(C)nc3c(F)c2O)nc2ccc(N3C[C@H](C)N[C@@H](C)C3)cc12 (single isomer, unassigned) [Compound 669] | < 100 | < 100 | < 100 | 100 to 1000 | < 100 | 100 to 1000
CNC(=O)c1nc(-c2cc3cn(C)nc3cc2O)nc2ccc(N3C[C@H](C)N[C@@H](C)C3)cc12 (single isomer, unassigned) [Compound 676] | < 100 | < 100 | < 100 | 100 to 1000 | < 100 | 100 to 1000
CNC(=O)c1nc(-c2cc3cn(C)nc3cc2O)nc2ccc(N3C[C@@H](C)N[C@H](C)C3)cc12 (single isomer, unassigned) [Compound 677] | < 100 | < 100 | < 100 | 100 to 1000 | < 100 | 100 to 1000
Cc1cn2cc(-c3ccc4cc(N5C[C@H](C)N[C@@H](C)C5)cc(F)c4n3)cc(F)c2n1 (single isomer, unassigned) [Compound 705, 2,2,2-trifluoroacetate] | 100 to 1000 | < 100 | < 100 | 100 to 1000 | < 100 | 100 to 1000
Cn1cc2cc(-c3ncc4nc(C5CCNCC5)ccc4n3)c(O)c(F)c2n1 [Compound 155] | < 100 | < 100 | < 100 | < 100 | < 100 | < 100
Cc1nc2cc(O)c(-c3ccc4nc(N5CCNC(C(C)(C)C)C5)ccc4n3)cc2o1 (stereo not drawn) [Compound 492] | 100 to 1000 | 1000 to 10000 | 1000 to 10000 | 100 to 1000 | 100 to 1000 | 1000 to 10000
Cc1nc2cc(O)c(-c3ccc4nc(N5CC[C@@H](N(C)C(C)(C)C)C5)ccc4n3)cc2o1 [Compound 493] | < 100 | < 100 | < 100 | < 100 | < 100 | < 100
Cc1c(O)c(-c2nc(C(=O)N(C)C)c3cc(N4CCNCC4)ccc3n2)cc2cn(C)nc12 [Compound 502, 2-(6-hydroxy-2,7-dimethylindazol-5-yl)-N,N-dimethyl-6-(piperazin-1-yl)quinazoline-4-carboxamide] | 1000 to 10000 | 1000 to 10000 | 1000 to 10000 | 1000 to 10000 | 1000 to 10000 | 1000 to 10000
CCNC(=O)c1nc(-c2cc3cn(C)nc3c(C)c2O)nc2ccc(N3CCNCC3)cc12 [Compound 503, N-ethyl-2-(6-hydroxy-2,7-dimethylindazol-5-yl)-6-(piperazin-1-yl)quinazoline-4-carboxamide] | < 100 | < 100 | < 100 | < 100 | < 100 | 100 to 1000
CNC(=O)c1nc(-c2cc(F)c3nc(C)cn3c2)nc2ccc(N3CCNCC3)cc12 [Compound 505, 2-{8-fluoro-2-methylimidazo[1,2-a]pyridin-6-yl}-N-methyl-6-(piperazin-1-yl) quinazoline-4-carboxamide] | < 100 | < 100 | < 100 | 100 to 1000 | < 100 | 100 to 1000
CNC(=O)c1nc(-c2cc3cn(C)nc3c(F)c2O)nc2ccc(N3CCNCC3)cc12 [Compound 506, 2-(7-fluoro-6-hydroxy-2-methylindazol-5-yl)-N-methyl-6-(piperazin-1-yl)quinazoline-4-carboxamide] | < 100 | < 100 | < 100 | 100 to 1000 | < 100 | 100 to 1000
CNC(=O)c1nc(-c2cc3cn(C)nc3c(C)c2O)nc2ccc(N3CCC(N(C)C)CC3)cc12 [Compound 507, 6-[4-(dimethylamino)piperidin-1-yl]-2-(6-hydroxy-2,7-dimethylindazol-5-yl)-N-methylquinazoline-4-carboxamide] | < 100 | < 100 | < 100 | 100 to 1000 | < 100 | 1000 to 10000
